{"source": "ChEMBL document CHEMBL1125127", "about": "(J Med Chem, 1990)", "key": {"Canis familiaris [1]": {"test_system": "Canis familiaris", "assay": "Concentration that causes a 20% increase in APD95 (action potential duration at 95% repolarization) from control value in anesthetized dogs", "format": "functional, Canis lupus familiaris"}, "Canis familiaris [2]": {"test_system": "Canis familiaris", "assay": "Concentration at which maximum change in […] was observed from control value in anesthetized dogs; The maximum observed change APD95 from control value and concentration at 30 uM when this occurred", "format": "functional, Canis lupus familiaris"}, "[3]": {"assay": "Ratio of number of active animals to number of treated animals; No of animals tested=2", "format": "functional"}, "[4]": {"target": "Beta adrenergic receptor (Canis familiaris)"}, "Canis familiaris [5]": {"test_system": "Canis familiaris", "assay": "Maximum change in […] from control value in anesthetized dogs; 10 uM.", "format": "functional, Canis lupus familiaris"}, "Canis familiaris [6]": {"test_system": "Canis familiaris", "assay": "Concentration at which maximum change in […] was observed from control value in anesthetized dogs; The maximum observed change APD95 from control value and concentration at 1 uM when this occurred", "format": "functional, Canis lupus familiaris"}, "Canis familiaris [7]": {"test_system": "Canis familiaris", "assay": "Percent change in FRP from control at active dose 30 mg/kg administered intraperitoneally in anesthetized dogs", "format": "functional, Canis lupus familiaris", "conditions": "route intraperitoneal"}, "Canis familiaris [8]": {"test_system": "Canis familiaris", "assay": "Percent change in blood pressure (BP) from control at active dose 30 mg/kg administered intraperitoneally in anesthetized dogs", "format": "functional, Canis lupus familiaris", "conditions": "route intraperitoneal"}, "Canis familiaris [9]": {"test_system": "Canis familiaris", "assay": "Percent change in heart rate (HR) from control at active dose 30 mg/kg administered intraduodenally", "conditions": "route intraduodenal"}, "[10]": {"assay": "Ratio of number of active animals to number of treated at dose 30 mg/kg administered intraperitoneally in anesthetized dogs; No of animals tested=4", "conditions": "route intraperitoneal"}, "Canis familiaris [11]": {"test_system": "Canis familiaris", "assay": "Percent change in FRP from control at active dose 10 mg/kg administered intraperitoneally in anesthetized dogs", "format": "functional, Canis lupus familiaris", "conditions": "route intraperitoneal"}, "Canis familiaris [12]": {"test_system": "Canis familiaris", "assay": "Percent change in blood pressure (BP) from control at active dose 1.0-10 mg/kg administered intraperitoneally in anesthetized dogs", "format": "functional, Canis lupus familiaris"}, "Canis familiaris [13]": {"test_system": "Canis familiaris", "assay": "Percent change in blood pressure (BP) from control at active dose 10 mg/kg administered intraperitoneally in anesthetized dogs", "format": "functional, Canis lupus familiaris", "conditions": "route intraperitoneal"}, "Canis familiaris [14]": {"test_system": "Canis familiaris", "assay": "Percent change in FRP from control at active dose 1.0-10 mg/kg administered intravenously"}, "Canis familiaris [15]": {"test_system": "Canis familiaris", "assay": "Percent change in heart rate (HR) from control at active dose 10 mg/kg administered intraduodenally", "conditions": "route intraduodenal"}, "Canis familiaris [16]": {"test_system": "Canis familiaris", "assay": "Percent change in heart rate (HR) from control at active dose 1.0-10 mg/kg administered intravenously in conscious dogs"}, "[17]": {"target": "Adrenergic receptor beta (Canis lupus familiaris)", "assay": "Tested for beta-receptor binding inhibition from canine ventricular tissue, using [3H]dihydroalprenolol as the radioligand in anesthetized dogs"}, "[18]": {"target": "Beta-1 adrenergic receptor (Canis familiaris)"}, "[19]": {"target": "Beta-2 adrenergic receptor (Canis lupus familiaris, UniProt P54833)", "sequence (P54833 whole entry)": "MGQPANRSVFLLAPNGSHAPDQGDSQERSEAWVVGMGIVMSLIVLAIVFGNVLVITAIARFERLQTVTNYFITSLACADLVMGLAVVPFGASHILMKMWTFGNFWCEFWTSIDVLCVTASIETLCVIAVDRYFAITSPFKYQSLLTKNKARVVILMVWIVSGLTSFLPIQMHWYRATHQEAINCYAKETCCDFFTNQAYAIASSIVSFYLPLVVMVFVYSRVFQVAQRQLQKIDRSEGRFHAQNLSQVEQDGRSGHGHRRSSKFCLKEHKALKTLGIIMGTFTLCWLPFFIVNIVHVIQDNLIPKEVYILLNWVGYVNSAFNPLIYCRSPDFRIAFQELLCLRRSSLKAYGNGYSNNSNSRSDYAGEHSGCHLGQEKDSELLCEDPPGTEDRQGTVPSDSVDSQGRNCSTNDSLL", "description": "Tested for Beta-2 adrenergic receptor selectivity in canine lung tissue in anesthetized dogs"}, "[20]": {"assay": "Ratio of number of active animals to number of treated at dose 30 mg/kg administered intraperitoneally in anesthetized dogs; No of animals tested=2", "format": "functional", "conditions": "route intraperitoneal"}, "Canis familiaris [21]": {"test_system": "Canis familiaris", "assay": "Concentration at which maximum change in […] was observed from control value in anesthetized dogs; The maximum observed change APD95 from control value and concentration at 100 uM when this occurred", "format": "functional, Canis lupus familiaris"}, "Canis familiaris [22]": {"test_system": "Canis familiaris", "assay": "Percent change in heart rate (HR) from control at active dose 1.0-10 mg/kg administered intraperitoneally in anesthetized dogs", "format": "functional, Canis lupus familiaris"}, "Canis familiaris [23]": {"test_system": "Canis familiaris", "assay": "Percent change in FRP from control at active dose 1.0-10 mg/kg administered intraperitoneally", "format": "functional, Canis lupus familiaris"}, "[24]": {"assay": "Ratio of number of active animals to number of treated at dose 1.0-10 mg/kg administered intraperitoneally in PES model in anesthetized dogs; 3/5", "format": "functional"}, "[25]": {"assay": "Ratio of number of active animals to number of treated in anesthetized dogs; No of animals tested=2", "format": "functional"}}, "data": [{"compound": "CS(=O)(=O)Nc1ccc(C(=O)NCCNCC(O)COc2ccccc2)cc1", "note": "(stereo not drawn)", "values": [{"measurement": "C20", "setting": "Canis familiaris [1]", "result": 7.1, "unit": "µM"}, {"measurement": "Max delta", "setting": "Canis familiaris [2]", "result": 26, "unit": "%"}, {"measurement": "Ratio", "setting": "[3]", "result": 0}, {"measurement": "IC50", "setting": "[4]", "result": 3900, "unit": "nM"}]}, {"compound": "CS(=O)(=O)Nc1ccc(C(=O)NCCNCC(O)COc2cccc3ccccc23)cc1", "note": "(stereo not drawn)", "values": [{"measurement": "C20", "setting": "Canis familiaris [1]", "result": 1.1, "unit": "µM"}, {"measurement": "Max delta", "setting": "Canis familiaris [5]", "result": 48, "unit": "%"}, {"measurement": "Ratio", "setting": "[3]", "result": 0}, {"measurement": "IC50", "setting": "[4]", "result": 150, "unit": "nM"}]}, {"compound": "CS(=O)(=O)Nc1ccc(N2CCN(CC(O)COc3ccccc3)CC2)cc1", "note": "(stereo not drawn)", "values": [{"measurement": "C20", "setting": "Canis familiaris [1]", "result": 2.7, "unit": "µM"}, {"measurement": "Max delta", "setting": "Canis familiaris [6]", "result": 52, "unit": "%"}, {"measurement": "Change", "setting": "Canis familiaris [7]", "result": 14, "unit": "%"}, {"measurement": "Change", "setting": "Canis familiaris [8]", "result": -17, "unit": "%"}, {"measurement": "IC50", "setting": "[4]", "result": 15800, "unit": "nM"}, {"measurement": "Change", "setting": "Canis familiaris [9]", "result": -7, "unit": "%"}, {"measurement": "Ratio", "setting": "[10]", "result": 1}]}, {"compound": "OC(CNCCOc1ccc(-n2ccnc2)cc1)CONC(C1CC1)C1CC1", "note": "(stereo not drawn)", "values": [{"measurement": "Change", "setting": "Canis familiaris [11]", "result": 20, "unit": "%"}, {"measurement": "C20 APD95", "setting": "Canis familiaris [1]", "result": 1.5, "unit": "µM"}, {"measurement": "Max delta", "setting": "Canis familiaris [5]", "result": 87, "unit": "%"}, {"measurement": "Change", "setting": "Canis familiaris [12]", "result": -5, "unit": "%"}, {"measurement": "Change", "setting": "Canis familiaris [13]", "result": 2, "unit": "%"}, {"measurement": "Change", "setting": "Canis familiaris [14]", "result": 3, "unit": "%"}, {"measurement": "Change", "setting": "Canis familiaris [15]", "result": -18, "unit": "%"}, {"measurement": "Change", "setting": "Canis familiaris [16]", "result": -13, "unit": "%"}, {"measurement": "IC50", "setting": "[17]", "result": 300, "unit": "nM"}]}, {"compound": "CS(=O)(=O)Nc1ccc(OC[C@H](O)CNCCOc2ccc(-n3ccnc3)cc2)cc1", "values": [{"measurement": "Max delta", "setting": "Canis familiaris [2]", "result": 73, "unit": "%"}]}, {"compound": "Cc1cccc(OCC(O)CNCc2ccc(NS(C)(=O)=O)cc2)c1", "note": "(stereo not drawn)", "values": [{"measurement": "C20", "setting": "Canis familiaris [1]", "result": "<1", "unit": "µM"}, {"measurement": "Max delta", "setting": "Canis familiaris [5]", "result": 44, "unit": "%"}, {"measurement": "IC50", "setting": "[18]", "result": 2400, "unit": "nM"}, {"measurement": "IC50", "setting": "[19]", "result": 4400, "unit": "nM"}, {"measurement": "IC50", "setting": "[4]", "result": 990, "unit": "nM"}]}, {"compound": "CS(=O)(=O)Nc1ccc(C(=O)NC2CCCCC2NCC(O)COc2ccccc2)cc1", "note": "(stereo not drawn)", "values": [{"measurement": "C20", "setting": "Canis familiaris [1]", "result": 5.3, "unit": "µM"}, {"measurement": "Max delta", "setting": "Canis familiaris [5]", "result": 45, "unit": "%"}, {"measurement": "Change", "setting": "Canis familiaris [7]", "result": 15, "unit": "%"}, {"measurement": "Change", "setting": "Canis familiaris [8]", "result": 17, "unit": "%"}, {"measurement": "Ratio", "setting": "[20]", "result": 2}, {"measurement": "IC50", "setting": "[4]", "result": 192000, "unit": "nM"}, {"measurement": "Change", "setting": "Canis familiaris [9]", "result": -19, "unit": "%"}]}, {"compound": "COc1ccc(OCC(O)CNCCNC(=O)c2ccc(NS(C)(=O)=O)cc2)cc1", "note": "(stereo not drawn)", "values": [{"measurement": "C20", "setting": "Canis familiaris [1]", "result": 0.6, "unit": "µM"}, {"measurement": "Max delta", "setting": "Canis familiaris [5]", "result": 86, "unit": "%"}, {"measurement": "Ratio", "setting": "[3]", "result": 0}, {"measurement": "IC50", "setting": "[4]", "result": 43800, "unit": "nM"}]}, {"compound": "Cc1ccccc1OCC(O)CNCc1ccc(-n2ccnc2)cc1", "note": "(stereo not drawn)", "values": [{"measurement": "C20", "setting": "Canis familiaris [1]", "result": 0.3, "unit": "µM"}, {"measurement": "Max delta", "setting": "Canis familiaris [5]", "result": 65, "unit": "%"}, {"measurement": "IC50", "setting": "[18]", "result": 800, "unit": "nM"}, {"measurement": "IC50", "setting": "[19]", "result": 1200, "unit": "nM"}, {"measurement": "IC50", "setting": "[4]", "result": 780, "unit": "nM"}]}, {"compound": "CCN(CC)CCNC(=O)c1ccc(NS(C)(=O)=O)cc1", "note": "[SEMATILIDE]", "values": [{"measurement": "C20", "setting": "Canis familiaris [1]", "result": 4.4, "unit": "µM"}, {"measurement": "Max delta", "setting": "Canis familiaris [21]", "result": 65, "unit": "%"}]}, {"compound": "Cc1cccc(OCC(O)CN2CCN(c3ccc(NS(C)(=O)=O)cc3)CC2)c1", "note": "(stereo not drawn)", "values": [{"measurement": "Change", "setting": "Canis familiaris [11]", "result": 17, "unit": "%"}, {"measurement": "C20", "setting": "Canis familiaris [1]", "result": "<1", "unit": "µM"}, {"measurement": "Max delta", "setting": "Canis familiaris [5]", "result": 55, "unit": "%"}, {"measurement": "Change", "setting": "Canis familiaris [12]", "result": -1, "unit": "%"}, {"measurement": "Change", "setting": "Canis familiaris [13]", "result": 13, "unit": "%"}, {"measurement": "Change", "setting": "Canis familiaris [22]", "result": 18, "unit": "%"}, {"measurement": "Change", "setting": "Canis familiaris [23]", "result": 13, "unit": "%"}, {"measurement": "No. effective", "setting": "[24]", "result": 3}, {"measurement": "IC50", "setting": "[19]", "result": 49300, "unit": "nM"}, {"measurement": "Change", "setting": "Canis familiaris [15]", "result": -21, "unit": "%"}]}, {"compound": "COCCc1ccc(OCC(O)CN2CCN(C(=O)c3ccc(NS(C)(=O)=O)cc3)CC2)cc1", "note": "(stereo not drawn)", "values": [{"measurement": "C20", "setting": "Canis familiaris [1]", "result": 7.7, "unit": "µM"}, {"measurement": "Max delta", "setting": "Canis familiaris [5]", "result": 56, "unit": "%"}, {"measurement": "IC50", "setting": "[4]", "result": 360000, "unit": "nM"}]}, {"compound": "CS(=O)(=O)Nc1ccc(CNCC(O)COc2ccccc2)cc1", "note": "(stereo not drawn)", "values": [{"measurement": "C20", "setting": "Canis familiaris [1]", "result": "<1", "unit": "µM"}, {"measurement": "Max delta", "setting": "Canis familiaris [5]", "result": 40, "unit": "%"}, {"measurement": "Ratio", "setting": "[25]", "result": 0}, {"measurement": "IC50", "setting": "[4]", "result": 2900, "unit": "nM"}]}, {"compound": "CC(=O)Nc1ccc(OCC(O)CN2CCN(c3ccc(NS(C)(=O)=O)cc3)CC2)cc1", "note": "(stereo not drawn)", "values": [{"measurement": "C20", "setting": "Canis familiaris [1]", "result": 42, "unit": "µM"}, {"measurement": "Max delta", "setting": "Canis familiaris [21]", "result": 39, "unit": "%"}, {"measurement": "IC50", "setting": "[4]", "result": 293000, "unit": "nM"}]}]}
